Measurements reported in patent US20240166681A1, “3'3' CYCLIC DINUCLEOTIDES CONTAINING ISONUCLEOTIDIC UNITS” (INSTITUTE OF ORGANIC CHEMISTRY AND BIOCHEMISTRY AS CR, V. …, priority 2021, published 2024).

Key:
WT STING = WT STING (Homo sapiens, UniProt Q86WV6, H232R); test: Differential scanning fluorimetry with WT STING; type: binding; design: truncated human WT STING or AQ STING (amino acid residues 140-343); 8xHis (N, cleaved yes); SUMO (N, cleaved yes); made in house; host or cells: E. coli Rosetta-gami B (DE3); conditions: thermal shift, truncated human WT STING 0.1 mg/ml, 150 μM CDN; for ΔTm at 150 µM: read-out: DSF ΔTm WT STING
From the text: (§1) Both WT and AQ human STING (G230A-R293Q) cDNA were amplified by the use of PCR (Phusion® High-Fidelity DNA Polymerase, cat. #M0530S, NEB, Ipswich, USA) using oligonucleotides hSTING140-BamH-For ([…]) (SEQ ID NO:5) and hSTING379-Not-Rev3 ([…]) (SEQ ID NO:6) from pUNO1-hSTING-WT (cat. #puno1-hstingwt, InvivoGen, San Diego, USA) and pUNO1-hSTING-HAQ plasmids (punol-hsting-haq, InvivoGen, San Diego, USA). Purified PCR products were cleaved with restriction enzymes BamHI (cat. #R0136S, NEB, Ipswich, USA) and Notl (cat. #R0189S, NEB, Ipswich, USA) and cloned into the pSUMO vector linearized with the identical enzymes. Plasmid pSUMO was created by introducing 8-His-SUMO sequence between Ndel and BamHI sites of pHis-parallel2 plasmid (Clontech, Moutain View, USA). pSUMO-STING WT or pSUMO-STING AQ plasmids thus encoded truncated human WT STING or AQ STING (amino acid residues 140-343) with N-terminal 8xHis and SUMO tag.
(§2) The recombinant WT STING and AQ STING proteins were overexpressed in Rosetta-gami B (DE3) competent cells (cat. #71136-3, Merck Millipore, Billerica, USA). Bacterial pellets were re-suspended in ice-cold lysis buffer containing 50 mmol·l^−1 TrisCl (cat. #T1503, Sigma Aldrich, Czech Republic) pH 8.0, 300 mmol·l^−1 NaCl, 3 mmol·l^−1 β-mercaptoethanol (cat. #M6250, Sigma Aldrich, Czech Republic), 10% glycerol (cat. #G5516, Sigma Aldrich, Czech Republic) and 20 mmol·l^−1 imidazole (cat. #15513, Sigma Aldrich, Czech Republic) using Dounce homogenizer. DNase I (cat. #D5025, Sigma Aldrich, Czech Republic) and RNase A (cat. #R6513, Sigma Aldrich, Czech Republic) were added (final concentration 50 μg/ml) together with MgCl2 (final concentration 5 mmol·l^−1) to the homogenate and bacteria were lysed using French Press G-M™ High-Pressure Cell Press Homogenizer (1500 psi, 3 cycles). Lysate was spun 30,000 g for 20 minutes and supernatant was gently stirred with Ni-NTA resin (cat. #745400.25 Macherey-Nagel, Duren, Germany) for 30 minutes. The resin was poured into a chromatography column, washed with 50 ml buffer A (50 mmol·l^−1 TrisCl (pH 8.0), 800 mmol·l^−1 NaCl, 3 mmol·l^−1 (3-mercaptol; 10% glycerol; 20 mmol·l^−1 imidazole) and 8-His-SUMO tagged STING proteins were eluted with 15 ml buffer A containing 300 mmol·l^−1 imidazole. The eluted proteins were cleaved with recombinant SUMO protease (80 μg/ml of protein solution, cat. #12588018, ThermoFisher, Waltham, USA). The proteins were further purified by size exclusion chromatography using HiLoad 16/60 Superdex 75 (cat. #28989333, GE Healthcare Bio-Sciences, Pittsburgh, USA) in 50 mmol·l^−1 Tris Cl buffer pH 7.4 containing 150 mmol·l^−1 NaCl, and 10% glycerol. Proteins were concentrated with Amicon® Ultra-15 10 K device (cat. #UFC901008, Merck Millipore, Billerica, USA) and flash frozen in liquid N2.
(§3) WT and AQ allelic forms of STING protein were diluted to the final concentration 0.1 mg/ml in 100 mmol·l^−1 TrisCl buffer pH 7.4 containing, 150 mmol·l^−1 NaCl, 1:500 SYPRO Orange (cat. #S6650, ThermoFisher, Waltham, USA) and 150 μM CDN or water. 20 μL solutions of the reaction mixtures were pipetted in triplicates into 96 well optical reaction plates and thermal denaturation of samples were performed on real time PCR cycler (LightCycler® 480 Instrument II—Roche, Basel, Switzerland). The first derivative of the thermal denaturation curves was performed to calculate denaturing temperatures of STING—CDN complexes and STING apoproteins. The thermal shift for each CDN was calculated by subtracting the average denaturing temperature of STING apoprotein from the average denaturing temperature of STING CDN complex.

AQ STING (G230A-R293Q) = biological target: T1, AQ STING (G230A-R293Q) (Homo sapiens, UniProt Q86WV6, G230A/H232R/R293Q); test: Differential scanning fluorimetry with AQ STING; type: binding; conditions: thermal shift, truncated human AQ STING 0.1 mg/ml, 150 μM CDN; for ΔTm at 150 µM: read-out: DSF ΔTm AQ STING
T1 construct: truncated human WT STING or AQ STING (amino acid residues 140-343); 8xHis (N, cleaved yes); SUMO (N, cleaved yes); made in house; host or cells: E. coli Rosetta-gami B (DE3)
From the text: as §1, §2, §3

T1 sequence (Q86WV6 140-343 G230A/H232R/R293Q): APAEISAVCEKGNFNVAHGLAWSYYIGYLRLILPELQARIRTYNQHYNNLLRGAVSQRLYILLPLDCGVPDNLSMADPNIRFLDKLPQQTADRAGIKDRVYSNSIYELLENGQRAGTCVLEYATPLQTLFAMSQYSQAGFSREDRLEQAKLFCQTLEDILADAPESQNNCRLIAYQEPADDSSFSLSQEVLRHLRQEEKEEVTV
Sequence of WT STING (Q86WV6 140-343 H232R): as the sequence (Q86WV6 140-343 G230A/H232R/R293Q) above, with A91G, Q154R counted along it

SMILES	ΔTm at 150 µM (WT STING) [°C]	ΔTm at 150 µM (AQ STING (G230A-R293Q)) [°C]	DSF ΔTm WT STING (WT STING) [°C]	DSF ΔTm AQ STING (AQ STING (G230A-R293Q)) [°C]
Nc1ncnc2c1ncn2[C@@H]1CO[C@@H]2COP(=O)(O)O[C@H]3[C@@H](F)[C@H](n4cnc5c(N)ncnc54)O[C@@H]3COP(=O)(O)O[C@@H]12 [Compound 28, (1S,6R,8R,9R,10R,15R,18R)-8,18-bis(6-amino-9H-purin-9-yl)-9-fluoro-3,12-dihydroxy-2,4,7,11,13,16-hexaoxa-3λ^5,12λ^5-diphosphatricyclo[13.3.0.0^6,10]octadecane-3,12-dione]	5.6	13.3		
Nc1ncnc2c1ncn2[C@@H]1CC[C@@H]2COP(=O)(O)O[C@H]3[C@@H](F)[C@H](n4cnc5c(N)ncnc54)O[C@@H]3COP(=O)(O)O[C@H]21 [Compound 34, (1R,6R,8R,9R,10R,15R,18R)-8,18-bis(6-amino-9H-purin-9-yl)-9-fluoro-3,12-dihydroxy-2,4,7,11,13-pentaoxa-3λ^5,12λ^5-diphosphatricyclo[13.3.0.0^6,10]octadecane-3,12-dione]	1.6	9.2		
Nc1nc2c(ncn2[C@@H]2O[C@@H]3COP(=O)(O)O[C@H]4[C@H](n5cnc6c(N)ncnc65)CO[C@@H]4COP(=O)(O)O[C@H]3[C@H]2F)c(=O)[nH]1 [Compound 24, (1S,6R,8R,9R,10R,15R,18R)-8-(2-amino-6-oxo-6,9-dihydro-1H-purin-9-yl)-18-(6-amino-9H-purin-9-yl)-9-fluoro-3,12-dihydroxy-2,4,7,11,13,16-hexaoxa-3λ^5,12λ^5-diphosphatricyclo[13.3.0.0^6,10]octadecane-3,12-dione]	8.5	16.9		
Nc1ncnc2c1ncn2[C@@H]1CO[C@@H]2COP(=O)(O)O[C@H]3C[C@H](n4cnc5c(N)ncnc54)O[C@@H]3COP(=O)(O)O[C@@H]12 [Compound 50, (1S,6R,8R,10S,15R,18R)-8,18-bis(6-amino-9H-purin-9-yl)-3,12-dihydroxy-2,4,7,11,13,16-hexaoxa-3λ^5,12λ^5-diphosphatricyclo[13.3.0.0^6,10]octadecane-3,12-dione]	1.8	9.3		

Continued, values first:

ΔTm at 150 µM (WT STING) [°C]	ΔTm at 150 µM (AQ STING (G230A-R293Q)) [°C]	DSF ΔTm WT STING (WT STING) [°C]	DSF ΔTm AQ STING (AQ STING (G230A-R293Q)) [°C]	SMILES
6.8	15.8			Nc1nc2c(ncn2[C@@H]2CO[C@@H]3COP(=O)(O)O[C@H]4[C@@H](F)[C@H](n5cnc6c(N)ncnc65)O[C@@H]4COP(=O)(O)O[C@@H]23)c(=O)[nH]1 [Compound 51, (1S,6R,8R,9R,10R,15R,18R)-18-(2-amino-6-oxo-6,9-dihydro-1H-purin-9-yl)-8-(6-amino-9H-purin-9-yl)-9-fluoro-3,12-dihydroxy-2,4,7,11,13,16-hexaoxa-3λ^5,12λ^5-diphosphatricyclo[13.3.0.0^6,10]octadecane-3,12-dione]
		11.0	20.0	Nc1ncnc2c1ncn2[C@@H]1CO[C@@H]2COP(=O)(S)O[C@H]3[C@@H](F)[C@H](n4cnc5c(N)ncnc54)O[C@@H]3COP(=O)(S)O[C@@H]12 (stereo partly drawn) [Compound 55, (1S,6R,8R,9R,10R,15R,18R)-8,18-bis(6-amino-9H-purin-9-yl)-9-fluoro-3,12-disulfanyl-2,4,7,11,13,16-hexaoxa-3λ^5,12λ^5-diphosphatricyclo[13.3.0.0^6,10]octadecane-3,12-dione]
2.9	11.5			Nc1nc2c(ncn2[C@@H]2CO[C@@H]3COP(=O)(O)O[C@H]4C[C@H](n5cnc6c(N)ncnc65)O[C@@H]4COP(=O)(O)O[C@@H]23)c(=O)[nH]1 [Compound 53, (1S,6R,8R,10S,15R,18R)-18-(2-amino-6-oxo-6,9-dihydro-1H-purin-9-yl)-8-(6-amino-9H-purin-9-yl)-3,12-dihydroxy-2,4,7,11,13,16-hexaoxa-3λ^5,12λ^5-diphosphatricyclo[13.3.0.0^6,10]octadecane-3,12-dione]
2.4	10.7			Nc1nc2c(ncn2[C@@H]2CO[C@@H]3COP(=O)(O)O[C@H]4[C@H](n5cnc6c(N)ncnc65)CO[C@@H]4COP(=O)(O)O[C@@H]23)c(=O)[nH]1 [Compound 52, (1S,6R,9R,10S,15R,18R)-9-(2-amino-6-oxo-6,9-dihydro-1H-purin-9-yl)-18-(6-amino-9H-purin-9-yl)-3,12-dihydroxy-2,4,7,11,13,16-hexaoxa-3λ^5,12λ^5-diphosphatricyclo[13.3.0.0^6,10]octadecane-3,12-dione]
8.5	17.2			Nc1ncnc2c1ncn2[C@@H]1CO[C@@H]2COP(=O)(S)O[C@H]3[C@@H](F)[C@H](n4cnc5c(N)ncnc54)O[C@@H]3COP(=O)(S)O[C@@H]12 (stereo partly drawn) [Compound 54, (1S,6R,8R,9R,10R,15R,18R)-8,18-bis(6-amino-9H-purin-9-yl)-9-fluoro-3,12-disulfanyl-2,4,7,11,13,16-hexaoxa-3λ^5,12λ^5-diphosphatricyclo[13.3.0.0^6,10]octadecane-3,12-dione]
